System: IL-2 secretion by Jurkat T cells
Test: Inhibition of IL-2 secretion
Format: cell-based
Conditions: Homo sapiens; Jurkat T cells stimulated with PHA, 20 to 24 hours, IL-2 by ELISA
Procedure: The CRAC channel modulatory activity of the compounds were thus evaluated by measuring the secretion of IL-2 by antigen stimulated T-cells in vitro. Alternatively, such activity can also be evaluated by assay methods known to one skilled in the art.
Inhibition of IL-2 secretion: Jurkat T cells were seeded at a density of 0.5 to 1 million cells per well in RPMI medium. Test compounds from this invention were added to the cells at different concentrations. This was followed by the addition of PHA, a T cell mitogen after 10 minutes. The cells were then incubated for 20 to 24 hours in a CO2 incubator at 37° C. After incubation with the compounds, cells were centrifuged, the supernatant was collected and processed for ELISA to quantitate the amount of IL-2 secreted. A commercial ELISA kit (R&D Systems, Inc. Minneapolis, Minn., USA) was used to estimate the IL-2 concentrations. Amount of IL-2 secreted by cells stimulated with PHA was considered as a 100% maximal signal and the decrease in amount of IL-2 secreted by cells treated with the test compounds was expressed as percent inhibition of the maximal signal. The dose response data was analyzed using 4-parametric sigmoidal dose response (variable slope) curve—fit.

`Cc1cc(NC(=O)c2c(F)cccc2F)ccc1-c1cc(-c2nn(C)c(=O)o2)cnc1C1CC1` [Example 32, N-(4-(2-Cyclopropyl-5-(4-methyl-5-oxo-4,5-dihydro-1,3,4-oxadiazol-2-yl)pyridin-3-yl)-3-methylphenyl)-2,6-difluorobenzamide] and `Cn1nc(-c2cnc(C3CC3)c(-c3ccc(NC(=O)c4c(F)cccc4F)cn3)c2)oc1=O` [Example 35, N-(2′-Cyclopropyl-5′-(4-methyl-5-oxo-4,5-dihydro-1,3,4-oxadiazol-2-yl)-[2,3′-bipyridin]-5-yl)-2,6-difluorobenzamide] cannot be ordered by IC50: < 100 nM for the first, < 100 nM for the second.

First: Cn1nc(-c2cnc(C3CC3)c(-c3cnc(NC(=O)c4c(F)cccc4F)cn3)c2)oc1=O [Example 33, N-(5-(2-Cyclopropyl-5-(4-methyl-5-oxo-4,5-dihydro-1,3,4-oxadiazol-2-yl)pyridin-3-yl)pyrazin-2-yl)-2,6-difluorobenzamide]
Second: Cn1nc(-c2cnc(C3CC3)c(-c3cnc(NC(=O)c4c(F)cccc4Cl)cn3)c2)oc1=O [Example 34, 2-Chloro-N-(5-(2-cyclopropyl-5-(4-methyl-5-oxo-4,5-dihydro-1,3,4-oxadiazol-2-yl)pyridin-3-yl)pyrazin-2-yl)-6-fluorobenzamide]
The IC50 of the first is lower: < 100 nM for the first, 100 to 1000 nM for the second.

Compared with `Cn1nc(-c2cnc(C3CC3)c(-c3ccc(NC(=O)c4c(F)cccc4F)nc3)c2)oc1=O` [Example 36, N-(2′-Cyclopropyl-5′-(4-methyl-5-oxo-4,5-dihydro-1,3,4-oxadiazol-2-yl)-[3,3′-bipyridin]-6-yl)-2,6-difluorobenzamide], `Cn1nc(-c2cnc(C(F)(F)F)c(-c3ccc(NC(=O)c4c(F)cccc4F)nc3)c2)oc1=O` [Example 38, 2,6-Difluoro-N-(5′-(4-methyl-5-oxo-4,5-dihydro-1,3,4-oxadiazol-2-yl)-2′-(trifluoromethyl)-[3,3′-bipyridin]-6-yl)benzamide] is higher in IC50: < 100 nM for the first, 100 to 1000 nM for the second. The first is the more potent here.

First: Cn1nc(-c2cnc(C(F)(F)F)c(-c3cnc(NC(=O)c4c(F)cccc4F)cn3)c2)oc1=O [Example 37, 2,6-Difluoro-N-(5-(5-(4-methyl-5-oxo-4,5-dihydro-1,3,4-oxadiazol-2-yl)-2-(trifluoromethyl)pyridine-3-yl)pyrazin-2-yl)benzamide]
Second: Cn1nc(-c2cnc(C(F)(F)F)c(-c3ccc(NC(=O)c4c(F)cccc4F)cn3)c2)oc1=O [Example 39, 2,6-Difluoro-N-(5′-(4-methyl-5-oxo-4,5-dihydro-1,3,4-oxadiazol-2-yl)-2′-(trifluoromethyl)-[2,3′-bipyridin]-5-yl)benzamide]
The IC50 of the first is lower: < 100 nM for the first, 100 to 1000 nM for the second.

First: CCc1ncc(-c2nn(C)c(=O)o2)cc1-c1ccc(NCc2c(F)cccc2F)cn1 [Example 40, 5-(5-((2,6-Difluorobenzyl)amino)-2′-ethyl-[2,3′-bipyridin]-5′-yl)-3-methyl-1,3,4-oxadiazol-2(3H)-one]
Second: CCc1ncc(-c2nn(C)c(=O)o2)cc1-c1ccc(NCc2c(F)cccc2F)nc1 [Example 41A, 5-(6′-((2,6-Difluorobenzyl)amino)-2-ethyl-[3,3′-bipyridin]-5-yl)-3-methyl-1,3,4-oxadiazol-2(3H)-one]
The IC50 of the first is lower: 100 to 1000 nM for the first, > 1000 nM for the second. The first is the more potent here.

First: CCc1ncc(-c2nn(C)c(=O)o2)cc1-c1cc(C)c(NC(=O)c2c(F)cccc2F)cn1 [Example 41B, N-(2′-Ethyl-4-methyl-5′-(4-methyl-5-oxo-4,5-dihydro-1,3,4-oxadiazol-2-yl)-[2,3′-bipyridin]-5-yl)-2,6-difluorobenzamide]
Second: CCc1ncc(-c2nn(C)c(=O)o2)cc1-c1cnc(NC(=O)c2c(F)cccc2F)cc1C [Example 41]
The IC50 of the first is higher: 100 to 1000 nM for the first, < 100 nM for the second.

In the case of `Cn1nc(-c2cnc(C3CC3)c(-c3ccc(C(=O)Nc4c(F)cccc4Cl)s3)c2)oc1=O` [Example 42, N-(2-Chloro-6-fluorophenyl)-5-(2-cyclopropyl-5-(4-methyl-5-oxo-4,5-dihydro-1,3,4-oxadiazol-2-yl)pyridin-3-yl)thiophene-2-carboxamide], the IC50 is reported as < 100 nM.
